# Assay results reported in patent US20230072854A1, “PARAXANTHINE-BASED BIOACTIVE COMPOSITION AND METHOD OF USE THEREOF” (Ingenious Ingredients, LP, priority 2020, published 2023).
# Assays:
# [1] = tested on: volunteers; experiment: Psychomotor vigilance task test, double blind crossover vs placebo; assay type: in vivo, human; details: 200 mg
# Source text: (§1) In a double blind, randomized, crossover, and repeated measures manner, 13 volunteers (10 male, 3 female, average age 24±5 years, average body weight 72.91±19.30 kg, average height 169.96±11.84 cm, average BMI 24.80±3.71 kg/m^2) participated in this study. Participants limited ingestion of caffeine and other stimulants to normal use for 48-hours, fasted for 8-hours and reported to the lab and completed 4 different cognitive function tests to assess short-term attention and inhibitory control (Go-No Go Test), sustained attention (Vigilance Task Test), working memory (Sternberg Task Test) and cognitive flexibility (Berg-Washington Card Sorting Test). Once completed, the participants ingested either a placebo or 200 mg of paraxanthine (WGI, TX, USA) with 8 ounces of water. Participants repeated cognitive function tests 1, 2, 3, 4, 5, and 6 hours after ingestion of the supplement. After one-week participants repeated the experiment while consuming the other treatment.
# (§2) Data were analyzed by a General Linear Model multivariate and univariate analyses with repeated measures using body weight as a covariate. Data are expressed as means±standard deviations for the placebo (PLA) and Paraxanthine (PrX). Greenhouse-Geisser univariate p-levels are listed for time (T), weight×time (W×T) and group×time (G×T) interactions effects. Pairwise comparison is indicated by the following superscripts: †=[…] difference from baseline value; *=[…] difference from baseline; a=[…] difference between groups; b=[…] difference between groups. Eta2 vaules of […] are considered small, […] medium, and >0.14 are considered large.
# The psychomotor vigilance task test is a sustained attention, reaction timed task that measures the speed with which participants respond to a visual stimulus. Lower Reaction time, especially maintained throughout this many tests represents better ability to sustain attention.
# [2] = tested on: volunteers; experiment: Sternberg task test, double blind crossover vs placebo; assay type: in vivo, human; details: 200 mg; for Sternberg Mean Response Time: in ms (unit assumed)
# Source text: as §1, §2
# A test of working memory, ability to make use of short-term memory. A lower reaction time means participants can access their working memory faster. The Sternberg Task test is a widely used paradigm for studying short-term/working memory (STM/WM) involving cognitive control processes.
# [3] = Toxicity, LD50; details: in vivo
compound,measurement,setting,value
"Cn1c(=O)[nH]c2ncn(C)c2c1=O [paraxanthine, 1,7-dimethylxanthine]",Trial #2 reaction time (FIG. 11),[1],maintained reaction time
same,Trial #10 reaction time (FIG. 12),[1],no significant time or between treatment differences
same,effect on average reaction times in the vigilance task test,[1],no effect
same,Reaction Time (milliseconds) Average,[1]; Mean (SEM) over all hours,"2,550 milliseconds"
same,Reaction Time (milliseconds) Trial #2,[1]; Mean (SEM) over all hours,"2,659 milliseconds"
same,Reaction Time (milliseconds) Trial #10,[1]; Mean (SEM) over all hours,"2,639 milliseconds"
same,Reaction Time (milliseconds) Trial #20,[1]; Mean (SEM) over all hours,"2,590 milliseconds"
same,Reaction Time (milliseconds) Average,[1]; hour 0 (before ingestion),"2,546 milliseconds"
same,Reaction Time (milliseconds) Trial #2,[1]; hour 0 (before ingestion),"2,601 milliseconds"
same,Reaction Time (milliseconds) Trial #10,[1]; hour 0 (before ingestion),"2,607 milliseconds"
same,Reaction Time (milliseconds) Trial #20,[1]; hour 0 (before ingestion),"2,680 milliseconds"
same,Reaction Time (milliseconds) Average,[1]; hour 1 after ingestion,"2,552 milliseconds"
same,Reaction Time (milliseconds) Trial #2,[1]; hour 1 after ingestion,"2,602 milliseconds"
same,Reaction Time (milliseconds) Trial #10,[1]; hour 1 after ingestion,"2,418 milliseconds"
same,Reaction Time (milliseconds) Trial #20,[1]; hour 1 after ingestion,"2,458 milliseconds"
same,Reaction Time (milliseconds) Average,[1]; hour 2 after ingestion,"2,508 milliseconds"
same,Reaction Time (milliseconds) Trial #2,[1]; hour 2 after ingestion,"3,005 milliseconds"
same,Reaction Time (milliseconds) Trial #10,[1]; hour 2 after ingestion,"2,651 milliseconds"
same,Reaction Time (milliseconds) Trial #20,[1]; hour 2 after ingestion,"2,220 milliseconds"
same,Reaction Time (milliseconds) Average,[1]; hour 3 after ingestion,"2,559 milliseconds"
same,Reaction Time (milliseconds) Trial #2,[1]; hour 3 after ingestion,"2,591 milliseconds"
same,Reaction Time (milliseconds) Trial #10,[1]; hour 3 after ingestion,"2,788 milliseconds"
same,Reaction Time (milliseconds) Trial #20,[1]; hour 3 after ingestion,"2,445 milliseconds"
same,Reaction Time (milliseconds) Average,[1]; hour 4 after ingestion,"2,538 milliseconds"
same,Reaction Time (milliseconds) Trial #2,[1]; hour 4 after ingestion,"3,005 milliseconds"
same,Reaction Time (milliseconds) Trial #10,[1]; hour 4 after ingestion,"2,412 milliseconds"
same,Reaction Time (milliseconds) Trial #20,[1]; hour 4 after ingestion,"2,792 milliseconds"
same,Reaction Time (milliseconds) Average,[1]; hour 5 after ingestion,"2,570 milliseconds"
same,Reaction Time (milliseconds) Trial #2,[1]; hour 5 after ingestion,"2,441 milliseconds"
same,Reaction Time (milliseconds) Trial #10,[1]; hour 5 after ingestion,"2,783 milliseconds"
same,Reaction Time (milliseconds) Trial #20,[1]; hour 5 after ingestion,"2,544 milliseconds"
same,Reaction Time (milliseconds) Average,[1]; hour 6 after ingestion,"2,577 milliseconds"
same,Reaction Time (milliseconds) Trial #2,[1]; hour 6 after ingestion,"2,360 milliseconds"
same,Reaction Time (milliseconds) Trial #10,[1]; hour 6 after ingestion,"2,813 milliseconds"
same,Reaction Time (milliseconds) Trial #20,[1]; hour 6 after ingestion,"3,005 milliseconds"
same,letter length 2 present reaction time (FIG. 18),[2],significantly improved reaction times
same,letter length 4 absent reaction time (FIG. 16),[2],no significant differences over time or between treatments
same,letter length 4 present reaction time (FIG. 19),[2],"no significant differences over time or between treatments, with Paraxanthine showing greater improvements during hours 3-6"
same,letter length 6 absent reaction time (FIG. 17),[2],"no significant differences over time or between treatments, with Paraxanthine showing greater improvement during hours 3-5"
same,Letter Length 2: Absent Reaction Time (Millisecond),[2]; Mean (SEM) over all hours,577.6 ± 27.1 Millisecond
same,Letter Length 2: Present Reaction Time (Millisecond),[2]; Mean (SEM) over all hours,503.5 ± 17.8 Millisecond
same,Letter Length 4: Absent Reaction Time (Millisecond),[2]; Mean (SEM) over all hours,741.3 ± 40.0 Millisecond
same,Letter Length 4: Present Reaction Time (Millisecond),[2]; Mean (SEM) over all hours,617.9 ± 25.1 Millisecond
same,Letter Length 6: Absent Reaction Time (Millisecond),[2]; Mean (SEM) over all hours,970.0 ± 55.7 Millisecond
same,Letter Length 6: Present Reaction Time (Millisecond),[2]; Mean (SEM) over all hours,808.2 ± 40.2 Millisecond
same,Sternberg Mean Response Time,[2]; Mean (SEM) over all hours,703.1 ± 32.4
same,"short-term/working memory, letter length 6 present reaction time",[2]; after 4 and 5 hours,significantly increased short-term/working memory
same,Letter Length 2: Absent Reaction Time (Millisecond),[2]; hour 0 (before ingestion),621.9 ± 154.3 Millisecond
same,Letter Length 2: Present Reaction Time (Millisecond),[2]; hour 0 (before ingestion),541.1 ± 104.2 Millisecond
same,Letter Length 4: Absent Reaction Time (Millisecond),[2]; hour 0 (before ingestion),748.7 ± 148.5 Millisecond
same,Letter Length 4: Present Reaction Time (Millisecond),[2]; hour 0 (before ingestion),625.9 ± 100.6 Millisecond
same,Letter Length 6: Absent Reaction Time (Millisecond),[2]; hour 0 (before ingestion),"1,012.5 ± 334.2 Millisecond"
same,Letter Length 6: Present Reaction Time (Millisecond),[2]; hour 0 (before ingestion),841.6 ± 254.0 Millisecond
same,Sternberg Mean Response Time,[2]; hour 0 (before ingestion),731.9 ± 163.0
same,Letter Length 2: Absent Reaction Time (Millisecond),[2]; hour 1 after ingestion,596.7 Millisecond
same,Letter Length 2: Present Reaction Time (Millisecond),[2]; hour 1 after ingestion,516.6 Millisecond
same,Letter Length 4: Absent Reaction Time (Millisecond),[2]; hour 1 after ingestion,755.5 Millisecond
same,Letter Length 4: Present Reaction Time (Millisecond),[2]; hour 1 after ingestion,642.9 Millisecond
same,Letter Length 6: Absent Reaction Time (Millisecond),[2]; hour 1 after ingestion,986.5 Millisecond
same,Letter Length 6: Present Reaction Time (Millisecond),[2]; hour 1 after ingestion,829.7 Millisecond
same,Sternberg Mean Response Time,[2]; hour 1 after ingestion,721.3
same,Letter Length 2: Absent Reaction Time (Millisecond),[2]; hour 2 after ingestion,579.7 Millisecond
same,Letter Length 2: Present Reaction Time (Millisecond),[2]; hour 2 after ingestion,503.8 Millisecond
same,Letter Length 4: Absent Reaction Time (Millisecond),[2]; hour 2 after ingestion,758.4 Millisecond
same,Letter Length 4: Present Reaction Time (Millisecond),[2]; hour 2 after ingestion,614.7 Millisecond
same,Letter Length 6: Absent Reaction Time (Millisecond),[2]; hour 2 after ingestion,"1,011.3 Millisecond"
same,Letter Length 6: Present Reaction Time (Millisecond),[2]; hour 2 after ingestion,800.0 Millisecond
same,Sternberg Mean Response Time,[2]; hour 2 after ingestion,711.3
same,letter length 2 absent reaction time (FIG. 15),"[2]; hour 3, 4 and 5",trend towards improved reaction times
same,Letter Length 2: Absent Reaction Time (Millisecond),[2]; hour 3 after ingestion,559.3 Millisecond
same,Letter Length 2: Present Reaction Time (Millisecond),[2]; hour 3 after ingestion,497.1 Millisecond
same,Letter Length 4: Absent Reaction Time (Millisecond),[2]; hour 3 after ingestion,762.3 Millisecond
same,Letter Length 4: Present Reaction Time (Millisecond),[2]; hour 3 after ingestion,634.6 Millisecond
same,Letter Length 6: Absent Reaction Time (Millisecond),[2]; hour 3 after ingestion,980.9 Millisecond
same,Letter Length 6: Present Reaction Time (Millisecond),[2]; hour 3 after ingestion,830.6 Millisecond
same,Sternberg Mean Response Time,[2]; hour 3 after ingestion,710.8
same,Letter Length 2: Absent Reaction Time (Millisecond),[2]; hour 4 after ingestion,553.8 Millisecond
same,Letter Length 2: Present Reaction Time (Millisecond),[2]; hour 4 after ingestion,488.3 Millisecond
same,Letter Length 4: Absent Reaction Time (Millisecond),[2]; hour 4 after ingestion,701.3 Millisecond
same,Letter Length 4: Present Reaction Time (Millisecond),[2]; hour 4 after ingestion,598.2 Millisecond
same,Letter Length 6: Absent Reaction Time (Millisecond),[2]; hour 4 after ingestion,914.8 Millisecond
same,Letter Length 6: Present Reaction Time (Millisecond),[2]; hour 4 after ingestion,778.1 Millisecond
same,Sternberg Mean Response Time,[2]; hour 4 after ingestion,672.4
same,Letter Length 2: Absent Reaction Time (Millisecond),[2]; hour 5 after ingestion,558.8 Millisecond
same,Letter Length 2: Present Reaction Time (Millisecond),[2]; hour 5 after ingestion,490.3 Millisecond
same,Letter Length 4: Absent Reaction Time (Millisecond),[2]; hour 5 after ingestion,717.5 Millisecond
same,Letter Length 4: Present Reaction Time (Millisecond),[2]; hour 5 after ingestion,617.1 Millisecond
same,Letter Length 6: Absent Reaction Time (Millisecond),[2]; hour 5 after ingestion,913.5 Millisecond
same,Letter Length 6: Present Reaction Time (Millisecond),[2]; hour 5 after ingestion,761.8 Millisecond
same,Sternberg Mean Response Time,[2]; hour 5 after ingestion,676.5
same,Letter Length 2: Absent Reaction Time (Millisecond),[2]; hour 6 after ingestion,568.9 Millisecond
same,Letter Length 2: Present Reaction Time (Millisecond),[2]; hour 6 after ingestion,483.8 Millisecond
same,Letter Length 4: Absent Reaction Time (Millisecond),[2]; hour 6 after ingestion,742.2 Millisecond
same,Letter Length 4: Present Reaction Time (Millisecond),[2]; hour 6 after ingestion,590.3 Millisecond
same,Letter Length 6: Absent Reaction Time (Millisecond),[2]; hour 6 after ingestion,970.7 Millisecond
same,Letter Length 6: Present Reaction Time (Millisecond),[2]; hour 6 after ingestion,816.4 Millisecond
same,Sternberg Mean Response Time,[2]; hour 6 after ingestion,695.4
same,letter length 6 present reaction time (FIG. 20),[2]; hours 4 and 5,improved present reaction time
same,decrease of mean response times in the Sternberg Test compared to baseline,"[2]; overall, vs baseline",3.9%
same,LD50,[3],1600 mg/kg
